Structures are written as SMILES. Inconclusive results and toxic doses are left out.

The text below walks through data of PubChem BioAssay AID328 (DTP/NCI, 2004).

This assay concerns BDF1 mice, P388 leukemia ip, median survival T/C. The experiment in a line: NCI In Vivo Anticancer Drug Screen. Data for tumor model P388 Leukemia (intraperitoneal) in B6D2F1 (BDF1) mice. Particulars: endpoint: median survival time, higher = longer survival. In short, it runs like this: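 Compound-treated tumour-bearing mice were compared with vehicle-treated controls. Survival was recorded, and the value is the treated-group measurement divided by the control-group measurement (T/C).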

[1] abbreviates: dose: 100.0 mg/kg/injection, schedule: Q01DX009 (ip), vehicle: saline with Tween-80.
Setting [2] is: dose: 100.0 mg/kg/injection, schedule: Q04DX003 (ip), vehicle: saline with Tween-80.
Setting [3] is: dose: 200.0 mg/kg/injection, schedule: Q01DX009 (ip), vehicle: saline with Tween-80.
Where [4] appears, read: dose: 200.0 mg/kg/injection, schedule: Q04DX003 (ip), vehicle: saline with Tween-80.
Setting [5] is: dose: 400.0 mg/kg/injection, schedule: Q01DX009 (ip), vehicle: saline with Tween-80.
[6] abbreviates: dose: 400.0 mg/kg/injection, schedule: Q04DX003 (ip), vehicle: saline with Tween-80.
Setting [7] is: dose: 50.0 mg/kg/injection, schedule: Q01DX005 (ip), vehicle: saline with Tween-80.
Where [8] appears, read: dose: 100.0 mg/kg/injection, schedule: Q01DX005 (ip), vehicle: saline with Tween-80.
[9] abbreviates: dose: 200.0 mg/kg/injection, schedule: Q01DX005 (ip), vehicle: saline with Tween-80.
Setting [10] is: dose: 50.0 mg/kg/injection, schedule: Q01DX009 (ip), vehicle: Klucel (hydroxypropylcellulose) (HPC).
Setting [11] is: dose: 100.0 mg/kg/injection, schedule: Q01DX009 (ip), vehicle: Klucel (hydroxypropylcellulose) (HPC).
[12] abbreviates: dose: 200.0 mg/kg/injection, schedule: Q01DX009 (ip), vehicle: Klucel (hydroxypropylcellulose) (HPC).
[13] abbreviates: dose: 50.0 mg/kg/injection, schedule: Q04DX003 (ip), vehicle: saline with Tween-80.
[14] abbreviates: dose: 50.0 mg/kg/injection, schedule: Q01DX009 (ip), vehicle: saline with Tween-80.
The mark [15] stands for this setting: dose: 12.5 mg/kg/injection, schedule: Q01DX009 (ip), vehicle: saline with Tween-80.
Setting [16] is: dose: 25.0 mg/kg/injection, schedule: Q01DX009 (ip), vehicle: saline with Tween-80.
Where [17] appears, read: dose: 100.0 mg/kg/injection, schedule: Q04DX003 (ip), vehicle: Klucel (hydroxypropylcellulose) (HPC).
Where [18] appears, read: dose: 200.0 mg/kg/injection, schedule: Q04DX003 (ip), vehicle: Klucel (hydroxypropylcellulose) (HPC).
[19] abbreviates: dose: 400.0 mg/kg/injection, schedule: Q01DX009 (ip), vehicle: Klucel (hydroxypropylcellulose) (HPC).

In the case of `COc1cc2c(cc1I)-c1c(cc(OC)c(OC)c1OC)CC[C@@H]2NC(C)=O`, the T/C runs as follows: (dose: 100.0 mg/kg/injection, schedule: Q04DX003 (ip), vehicle: saline sonified) 100 % of control; (dose: 200.0 mg/kg/injection, schedule: Q04DX003 (ip), vehicle: saline sonified) 108 % of control; (dose: 400.0 mg/kg/injection, schedule: Q04DX003 (ip), vehicle: saline sonified) 100 % of control.

Regarding `COCC1CCSC1=O` (stereo not drawn), the T/C runs as follows: (dose: 100.0 mg/kg/injection, schedule: Q01DX001 (ip), vehicle: saline with Tween-80) 102 % of control; (dose: 200.0 mg/kg/injection, schedule: Q01DX001 (ip), vehicle: saline with Tween-80) 102 % of control; (dose: 400.0 mg/kg/injection, schedule: Q01DX001 (ip), vehicle: saline with Tween-80) 93 % of control.

With `NOCc1cccc(C(F)(F)F)c1`, the T/C is, setting by setting: (dose: 75.0 mg/kg/injection, schedule: Q04DX003 (ip), vehicle: saline) 91 % of control; (dose: 150.0 mg/kg/injection, schedule: Q04DX003 (ip), vehicle: saline) 91 % of control; (dose: 300.0 mg/kg/injection, schedule: Q04DX003 (ip), vehicle: saline) 91 % of control.

For `NN(C(=O)c1ccccc1)C1CCCCC1`, the T/C reads like this: (dose: 25.0 mg/kg/injection, schedule: Q01DX009 (ip), vehicle: alcohol) 91 % of control; (dose: 50.0 mg/kg/injection, schedule: Q01DX009 (ip), vehicle: alcohol) 100 % of control; (dose: 75.0 mg/kg/injection, schedule: Q04DX003 (ip), vehicle: Klucel (hydroxypropylcellulose) (HPC)) 110 % of control; (dose: 115.0 mg/kg/injection, schedule: Q04DX003 (ip), vehicle: Klucel (hydroxypropylcellulose) (HPC)) 120 % of control; (dose: 170.0 mg/kg/injection, schedule: Q04DX003 (ip), vehicle: Klucel (hydroxypropylcellulose) (HPC)) 100 % of control; (dose: 255.0 mg/kg/injection, schedule: Q04DX003 (ip), vehicle: Klucel (hydroxypropylcellulose) (HPC)) 110 % of control. For the setting “dose: 385.0 mg/kg/injection, schedule: Q04DX003 (ip), vehicle: Klucel (hydroxypropylcellulose) (HPC)”, the T/C was 100 % of control.

As to `CCOC(=O)C(C)(C(=O)OCC)c1ccccc1`, the T/C is 104 % of control under setting [1]; 115 % of control under setting [2]; 113 % of control under setting [3]; 110 % of control under setting [4]; 118 % of control under setting [5]; 115 % of control under setting [6].

Take `OC1c2ccccc2C=Cc2ccccc21`: the T/C (dose: 25.0 mg/kg/injection, schedule: Q01DX001 (ip), vehicle: saline sonified) was 104 % of control; the T/C (dose: 50.0 mg/kg/injection, schedule: Q01DX001 (ip), vehicle: saline sonified) is 104 % of control; the T/C (dose: 100.0 mg/kg/injection, schedule: Q01DX001 (ip), vehicle: saline sonified) is 100 % of control.

With `C(=C(\Cc1ccccc1)c1ccccc1)/c1ccccc1`, the T/C reads like this: under setting [7], 99 % of control; under setting [8], 103 % of control; under setting [9], 103 % of control.

With `C(=C\c1ccc2ccccc2n1)/c1ccc2c(c1)OCO2`, the T/C runs as follows: under setting [2], 100 % of control; under setting [4], 100 % of control; under setting [6], 88 % of control.

For `COc1c(C)c(OCC=C(C)C)cc(CO)c1CO`, the T/C reads like this: under setting [10], 109 % of control; under setting [11], 109 % of control; under setting [12], 100 % of control.

In the case of `C(=C\c1ccccc1)/CSc1ncnc2nc[nH]c12`, the T/C was 104 % of control under setting [1]; 90 % of control under setting [2]; 104 % of control under setting [3]; 104 % of control under setting [4]; 100 % of control under setting [5]; 100 % of control under setting [6].

`Cc1cccc(NC(=O)C2CCC(C)(C(=O)O)C2(C)C)c1` (stereo not drawn): the T/C is 100 % of control under setting [13], 95 % of control under setting [2] and 104 % of control under setting [4].

For `COc1ccc2ccccc2c1C1NC(=O)c2ccccc2N1` (stereo not drawn), the T/C is 115 % of control (dose: 25.0 mg/kg/injection, schedule: Q01DX009 (ip), vehicle: Klucel (hydroxypropylcellulose) (HPC)); 100 % of control under setting [10]; 166 % of control under setting [12].

In the case of `CN(C)c1ccc(/C=C/c2ccnc3ccc(Cl)cc23)cc1`, the T/C reads like this: under setting [14], 100 % of control; under setting [3], 100 % of control.

Turning to `OCCN1CCNC1=S`, the T/C is, setting by setting: (dose: 100.0 mg/kg/injection, schedule: Q04DX003 (ip), vehicle: saline) 95 % of control; (dose: 200.0 mg/kg/injection, schedule: Q04DX003 (ip), vehicle: saline) 91 % of control; (dose: 400.0 mg/kg/injection, schedule: Q04DX003 (ip), vehicle: saline) 91 % of control.

Take `CC(=O)[C@]1(O)Cc2c(O)c3c(c(O)c2[C@@H](OC2CC(N)C(O)C(C)O2)C1)C(=O)c1c(OC(C)C)cccc1C3=O` (stereo partly drawn): the T/C is 118 % of control (dose: 6.25 mg/kg/injection, schedule: Q04DX003 (ip), vehicle: water); 162 % of control (dose: 12.5 mg/kg/injection, schedule: Q04DX003 (ip), vehicle: water); 89 % of control (dose: 50.0 mg/kg/injection, schedule: Q04DX003 (ip), vehicle: water).

Turning to `CCOC(=O)CCC(C(=O)OCC)C(=O)OCC`, the T/C under setting [1] is 107 % of control; the T/C under setting [2] was 91 % of control; the T/C under setting [3] was 100 % of control; the T/C under setting [4] was 100 % of control; the T/C under setting [5] is 92 % of control; the T/C under setting [6] is 95 % of control.

For the molecule `CC(=O)Nc1nc(Cl)c([N+](=O)[O-])c(SCc2ccccc2)n1`, the T/C by setting is: under setting [15], 94 % of control; under setting [16], 98 % of control; (dose: 25.0 mg/kg/injection, schedule: Q04DX003 (ip), vehicle: saline with Tween-80) 116 % of control; under setting [14], 107 % of control; under setting [13], 114 % of control; under setting [1], 96 % of control. Besides, the T/C reads like this: under setting [2], 114 % of control; under setting [4], 96 % of control.

For the molecule `Cc1cc(-c2ccc(Cl)cc2)[n+](C)n1C`, the T/C is 100 % of control under setting [15] and 111 % of control under setting [16].

With `CCOC(=O)C(CC)(CCC(C)C)C(=O)OCC`, the T/C was 95 % of control under setting [16], 95 % of control under setting [14] and 100 % of control under setting [1].

Consider `Cc1c2oc3c(C)ccc(C(=O)NCCc4ccco4)c3nc-2c(C(=O)NCCc2ccco2)c(N)c1=O`, for which the T/C reads like this: under setting [2], 102 % of control; under setting [4], 99 % of control; under setting [6], 96 % of control.

Turning to `CCCCCCCCCCCCCCCCn1/c(=N/N=C/c2ccccc2S(=O)(=O)O)sc2ccccc21`, the T/C under setting [17] was 104 % of control; the T/C under setting [12] was 95 % of control; the T/C under setting [18] was 118 % of control; the T/C under setting [19] was 95 % of control; the T/C (dose: 400.0 mg/kg/injection, schedule: Q04DX003 (ip), vehicle: Klucel (hydroxypropylcellulose) (HPC)) was 95 % of control.

Take `CCC(C)C(NC(=O)C(Cc1ccc(O)cc1)NC(=O)C(N)C(C)C)C(=O)NC(Cc1cnc[nH]1)C(=O)N1CCCC1C(=O)NC(Cc1ccccc1)C(=O)OC` (stereo not drawn): the T/C by setting is: under setting [7], 101 % of control; under setting [8], 90 % of control; under setting [9], 90 % of control.

As to `CCCC(C)(C)c1cc(C(C)C)cc(C(C)(C)CCC)c1O`, the T/C was 112 % of control (dose: 12.5 mg/kg/injection, schedule: Q01DX009 (ip), vehicle: other); 118 % of control (dose: 25.0 mg/kg/injection, schedule: Q01DX009 (ip), vehicle: other); 97 % of control (dose: 50.0 mg/kg/injection, schedule: Q01DX009 (ip), vehicle: other).

Take `N=C(N)SCCC(=O)O`: the T/C is 109 % of control (dose: 50.0 mg/kg/injection, schedule: Q04DX003 (ip), vehicle: Klucel (hydroxypropylcellulose) (HPC)); 100 % of control under setting [11]; 100 % of control under setting [17]; 110 % of control under setting [12]; 109 % of control under setting [18]; 90 % of control under setting [19].
